The source of these data is US20080221134A1, “8-ALKYNYLXANTHINES AND DERIVATIVES” (priority 2006, published 2008).

Like-named read-outs stand apart in the source and are kept apart here.

Test [1] deals with T1, A2A-adenosine receptor human recombinant (Homo sapiens, UniProt P29274).
T1 construct: expressed in transfected cells
Put plainly: Radioligand binding assay 1, human recombinant A2A adenosine receptor. The procedure:
(§1) Rat brain preparations were used for A1- and A2A adenosine receptor (AR) and human recombinant cell samples for A1-, A2A- and A3 adenosine receptor radioligand binding studies. Affinity and selectivity was tested in displacement experiments with following radioligands: [^3H]CCPA for A1-adenosine receptors, [^3H]MSX-2 for A2A-receptors and [^3H]PSB-11 for A3-receptors. Results of these experiments are depicted in table 2b (human data) and table 2a (rat data). Radioligand binding test systems are e.g. generally described by Muller et al., Curr. Pharm. Des., 1996, 2, 501 and Weyler et al., ChemMedChem 2006, 1, 891 and references cited therein) These documents are incorporated herein by reference.

A further test has as its target T2, Rat A1 AR (Rattus norvegicus, UniProt P25099).
T2 construct: Rat brain preparations were used for A1- and A2A adenosine receptor (AR); from tissue; host or cells: rat cortex
T2 sequence (P25099 1-326): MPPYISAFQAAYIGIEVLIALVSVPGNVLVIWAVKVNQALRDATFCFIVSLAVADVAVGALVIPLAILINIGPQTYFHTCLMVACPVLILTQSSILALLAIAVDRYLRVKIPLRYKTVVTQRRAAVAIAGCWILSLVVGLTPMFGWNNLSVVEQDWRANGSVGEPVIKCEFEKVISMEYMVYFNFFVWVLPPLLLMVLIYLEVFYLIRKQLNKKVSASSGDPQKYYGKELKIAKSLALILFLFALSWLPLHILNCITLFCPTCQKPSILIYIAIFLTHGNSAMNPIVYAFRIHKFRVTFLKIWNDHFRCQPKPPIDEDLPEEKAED
The experiment in a line: Radioligand binding assay 1, rat A1 adenosine receptor. The settings on record: rat cortex, [3H]CCPA. The method, then: as §1

The target in another test is T3, Rat A2A AR (Rattus norvegicus, UniProt P30543).
T3 construct: A2A adenosine receptors from rat striatum; from tissue; host or cells: rat striatum
The experiment in a line: Radioligand binding assay 1, rat A2A adenosine receptor. The note with it: rat striatum, [3H]MSX-2. The method, then: as §1

[2] abbreviates: human recombinant, [3H]MSX-2, read-out: A2A-adenosine receptor human recombinant [3H] MSX-2 Ki.

T3 sequence (P30543 whole entry): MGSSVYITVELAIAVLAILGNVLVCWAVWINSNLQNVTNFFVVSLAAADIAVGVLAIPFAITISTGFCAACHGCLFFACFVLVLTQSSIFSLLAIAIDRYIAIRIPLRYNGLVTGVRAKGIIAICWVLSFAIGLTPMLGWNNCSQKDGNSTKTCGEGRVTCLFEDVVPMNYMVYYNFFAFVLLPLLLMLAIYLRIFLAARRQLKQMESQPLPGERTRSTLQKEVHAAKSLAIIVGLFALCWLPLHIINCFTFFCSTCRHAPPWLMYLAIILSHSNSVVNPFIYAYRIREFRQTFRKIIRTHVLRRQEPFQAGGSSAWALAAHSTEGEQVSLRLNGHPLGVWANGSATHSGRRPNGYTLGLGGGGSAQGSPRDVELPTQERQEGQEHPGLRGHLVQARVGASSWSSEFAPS
T1 sequence (P29274 whole entry): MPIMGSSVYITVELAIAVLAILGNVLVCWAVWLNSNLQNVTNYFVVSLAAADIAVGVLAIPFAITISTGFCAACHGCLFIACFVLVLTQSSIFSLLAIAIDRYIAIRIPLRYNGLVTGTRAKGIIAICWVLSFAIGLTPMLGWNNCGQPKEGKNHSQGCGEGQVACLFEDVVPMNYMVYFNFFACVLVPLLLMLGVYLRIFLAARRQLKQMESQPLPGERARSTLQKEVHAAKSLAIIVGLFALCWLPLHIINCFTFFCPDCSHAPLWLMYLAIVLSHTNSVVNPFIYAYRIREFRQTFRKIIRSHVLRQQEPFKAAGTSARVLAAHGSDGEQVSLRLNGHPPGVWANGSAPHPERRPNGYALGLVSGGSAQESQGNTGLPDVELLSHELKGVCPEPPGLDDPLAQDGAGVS

As for `C#CCn1c(=O)c2c(nc(C#Cc3cccc(OC)c3)n2C)n(CC=C)c1=O` [drawing 571], the Ki (commonly the dissociation constant of the complex between target and ligand, obtained from inhibition or displacement) in test [1] (setting [2]) came out at 0.0356 ± 0.0109 µM.
The same measure, in the same setting: then `C#CCn1c(=O)c2c(nc(C#Cc3ccc(OC)c(OC)c3)n2C)n(CC(C)=O)c1=O` [drawing 592], with 0.273 µM.
Same read-out and setting: then `C#CCn1c(=O)c2c(nc(C#Cc3cccc(OC)c3)n2C)n(CCN(C)C)c1=O` [drawing 594], with 0.569 ± 0.0107 µM.
Still for that read-out and setting: then `C#CCn1c(=O)c2c(nc(C#Cc3cccc(OCCCO)c3)n2C)n(C)c1=O` [drawing 596], with 0.299 ± 0.072 µM.
Turning to `C#CCn1c(=O)c2c(nc(C#Cc3cncn3C)n2C)n(CC)c1=O` [drawing 600], the Ki in test [1] (setting [2]) is 0.0821 ± 0.026 µM.
Still for that read-out and setting: the value for `C#CCn1c(=O)c2c(nc(C#Cc3ccsc3)n2C)n(CC)c1=O` [drawing 599] was 0.0825 µM; that for `C#CCn1c(=O)c2c(nc(C#Cc3cccc(OC)c3)n2C)n(CCO)c1=O` [drawing 572] was 0.165 ± 0.014 µM; that for `C#CCn1c(=O)c2c(nc(C#Cc3ccc(OC)c(OC)c3)n2C)n(C)c1=O` [drawing 601] was 0.0897 ± 0.0161 µM.
For the molecule `C#CCn1c(=O)c2c(nc(C#Cc3ccc(OC)c(OC)c3)n2C)n(CCCOP(=O)(O)O)c1=O` [drawing 494], the Ki on Rat A1 AR was 0.136 ± 0.019 µM; on Rat A2A AR it was 0.037 ± 0.011 µM.
For `C#CCn1c(=O)c2c(nc(C#Cc3cccc(C)c3)n2C)n(CCCO)c1=O` [drawing 534] the same measures were 0.467 ± 0.006 µM and 0.047 ± 0.002 µM.
For `C#CCn1c(=O)c2c(nc(C#Cc3ccc(OC)c(OC)c3)n2C)n(Cc2ccsc2)c1=O` the same measures were greater than 1 µM and 0.028 ± 0.0042 µM.
As to `C#CCn1c(=O)c2c(nc(C#Cc3ccccc3OC)n2C)n(C)c1=O`, the Ki on Rat A1 AR and on Rat A2A AR was greater than 10 µM in each case.
Take `C#CCn1c(=O)c2c(nc(C#Cc3ccsc3)n2C)n(CC)c1=O` [drawing 510]: the values for the Ki at Rat A1 AR and on Rat A2A AR were greater than 1 µM and 0.108 ± 0.031 µM, respectively.
For `C#CCn1c(=O)c2c(nc(C#Cc3ccc(OC)c(OC)c3)n2C)n(CC#N)c1=O` [drawing 500], in that order: greater than 1 µM and 0.04 ± 0.0006 µM.
Take `C#CCn1c(=O)c2c(nc(C#Cc3ccc(OC)c(OC)c3)n2C)n(Cc2ccco2)c1=O` [drawing 503]: the inhibition constant Ki at Rat A1 AR came to 0.0768 ± 0.0229 µM; on Rat A2A AR, 0.00674 ± 0.001 µM.
For `C#Cn1c(=O)c2c(nc(C#Cc3ccc(Cl)c(Cl)c3)n2C)n(C)c1=O`, in that order: greater than 1 µM and greater than 1 µM.
For `C#CCn1c(=O)c2c(nc(C#Cc3ccc(OC)c(OC)c3)n2C)n(CC)c1=O` [drawing 487] the same measures were greater than 3 µM and 0.0472 ± 0.0073 µM.
For `C#CCn1c(=O)c2c(nc(C#Cc3ccc(OC)c(OC)c3)n2C)n(CC2CC2)c1=O` [drawing 521] the same measures were greater than 1 µM and 0.0102 ± 0.0042 µM.
For `C#CCn1c(=O)c2c(nc(C#Cc3ccc(OC)c(OC)c3)n2C)n(Cc2ccoc2)c1=O` [drawing 509], the Ki on Rat A1 AR was greater than 1 µM; on Rat A2A AR it was 0.00516 ± 0.00191 µM.
Consider `C#CCn1c(=O)c2c(nc(C#Cc3ccc(OC)c(OC)c3)n2C)n(CCC2CO2)c1=O` (stereo not shown) [drawing 580], for which the Ki in test [1] (setting [2]) came out at 0.0963 ± 0.0031 µM.
Regarding `C#CCn1c(=O)c2c(nc(C#Cc3cc(OC)cc(OC)c3)n2C)n(C)c1=O`, the Ki on Rat A1 AR is greater than 10 µM; at Rat A2A AR, 0.19 ± 0.05 µM.
Take `C#CCn1c(=O)c2c(nc(C#Cc3ccc(OC)c(F)c3)n2C)n(CC)c1=O`: the Ki at Rat A1 AR is no less than 1 µM; on Rat A2A AR, 0.0526 ± 0.0195 µM.
For `C#CCn1c(=O)c2c(nc(C#Cc3ccccc3)n2C)n(C)c1=O` [drawing 452], in that order: greater than 1 µM and 0.186 ± 0.06 µM.
For `C#CCn1c(=O)c2c(nc(C#Cc3cccc(OC)c3)n2CC#N)n(C)c1=O` the same measures were greater than 1 µM and 0.0562 ± 0.0129 µM.
For `C#CCn1c(=O)c2c(nc(C#Cc3cccc(OCCOC)c3)n2C)n(C)c1=O` [drawing 471] the same measures were no less than 10 µM and 0.219 ± 0.052 µM.
For the molecule `C#CCn1c(=O)[nH]c2nc(C#Cc3ccc(OC)c(OC)c3)n(C)c2c1=O` [drawing 483], the Ki is no less than 10 µM on Rat A1 AR and 0.015 ± 0.002 µM at Rat A2A AR.
Turning to `C#CCn1c(=O)c2c(nc(C#Cc3ccccc3)n2C)n(C)c1=O` [drawing 552], in test [1] (no full inhibition curve due to limited water-solubility, read-out: A2A-adenosine receptor human recombinant [3H] MSX-2 Ki, calculated by extrapolation), the Ki was 0.314 ± 0.071 µM.
Take `C#CCn1c(=O)c2c(nc(C#Cc3cccc(OCCCO)c3)n2C)n(C)c1=O` [drawing 468]: the Ki at Rat A1 AR was no less than 10 µM; on Rat A2A AR it was 0.211 ± 0.046 µM.
For `C#CCn1c(=O)c2c(nc(C#Cc3ccc(F)c(OC)c3)n2C)n(CC)c1=O` [drawing 519], in that order: greater than 1 µM and 0.0431 ± 0.0132 µM.
As for `C#CCn1c(=O)c2c(nc(C#Cc3ccc(OC)c(F)c3)n2C)n(C)c1=O`, the figures for the Ki at Rat A1 AR and at Rat A2A AR were greater than 1 µM and 0.194 ± 0.039 µM, respectively.
For `C#CCn1c(=O)c2c(nc(C#Cc3ccc(OC)cc3)n2C)n(C)c1=O`, in that order: greater than 10 µM and 0.123 ± 0.038 µM.
For `C#CCn1c(=O)c2c(nc(C#Cc3cccc(OC)c3)n2C)n(CC=C)c1=O` [drawing 490], in that order: greater than 1 µM and 0.0418 ± 0.0043 µM.
In the case of `C#CCn1c(=O)c2c(nc(C#Cc3ccc(OC)c(OC)c3)n2C)n(C(C)C(C)=O)c1=O` (stereo not shown) [drawing 591], in test [1] (setting [2]), the Ki amounted to 0.054 µM.
Regarding `C#CCn1c(=O)c2c(nc(C#Cc3ccc(OC)c(OC)c3)n2C)n(CCC(=O)CC)c1=O`, the Ki at Rat A1 AR is 0.111 ± 0.026 µM; at Rat A2A AR, 0.103 ± 0.015 µM.
For `C#CCn1c(=O)c2c(nc(C#Cc3ccc(OCC)c(OCC)c3)n2C)n(CC)c1=O` [drawing 497], in that order: greater than 1 µM and 0.166 ± 0.05 µM.
For `C#CCn1c(=O)c2c(nc(C#Cc3cccc(OC)c3)n2C)n(CC#C)c1=O` the same measures were greater than 10 µM and 0.0807 ± 0.0211 µM.
For `C#CCn1c(=O)c2c(nc(C#Cc3ccc(OCC)c(OCC)c3)n2C)n(C)c1=O` the same measures were greater than 1 µM and 0.951 ± 0.224 µM.
For `C#CCn1c(=O)c2c(nc(C#Cc3cccc(OC)c3)n2C)n(CCCO)c1=O` [drawing 484], the Ki at Rat A1 AR amounted to 0.142 ± 0.008 µM; at Rat A2A AR it was 0.0118 ± 0.0016 µM.
On to `C#CCn1c(=O)c2c(nc(C#Cc3ccc(OC)c(OC)c3)n2C)n(CC(=O)O)c1=O`, for which the Ki is greater than 1 µM on Rat A1 AR and 0.272 ± 0.057 µM at Rat A2A AR.
Regarding `C#CCn1c(=O)c2c(nc(C#Cc3ccc4c(c3)OCO4)n2C)n(C)c1=O` [drawing 561], the Ki in test [1] (setting [2]) stood at 0.0523 ± 0.0134 µM.
In the case of `C#CCn1c(=O)c2c(nc(C#Cc3cccc(OC)c3)n2C)n(CCO)c1=O` [drawing 491], the Ki at Rat A1 AR is greater than 1 µM; on Rat A2A AR it was 0.103 ± 0.015 µM.
On to `C#CCn1c(=O)c2c(nc(C#Cc3ccc(OC)c(OC)c3)n2C)n(CC=C)c1=O`, for which the Ki at Rat A1 AR is greater than 1 µM; at Rat A2A AR, 0.0095 ± 0.0016 µM.
For `C#CCn1c(=O)c2c(nc(C#Cc3ccc(OC)c(OC)c3)n2C)n(CCC(F)(F)F)c1=O`, in that order: 0.234 ± 0.047 µM and 0.0242 ± 0.0038 µM.
For `C#CCn1c(=O)c2c(nc(C#Cc3ccc(OC)c(OC)c3)n2C)n(CC(C)C)c1=O` [drawing 517], in that order: no less than 1 µM and 0.00554 ± 0.0013 µM.
Regarding `C#CCn1c(=O)c2c(nc(C#Cc3ccc(OC)c(OC)c3)n2C)n(CCC2CO2)c1=O` (stereo not shown) [drawing 505], the Ki at Rat A1 AR was determined as 0.064 ± 0.0054 µM; at Rat A2A AR, 0.0192 ± 0.0014 µM.
For `C#CCn1c(=O)c2c(nc(C#Cc3ccc(OC)c(OC)c3)n2C)n(CC(=O)OC)c1=O` [drawing 546] the same measures were 0.286 ± 0.011 µM and 0.0365 ± 0.0061 µM.
As for `C#CCn1c(=O)c2c(nc(C#Cc3ccc(OC)c(OC)c3)n2C)n(CCCCF)c1=O`, the figures for the Ki on Rat A1 AR and at Rat A2A AR were 0.209 ± 0.042 µM and 0.0117 ± 0.0017 µM, respectively.
Consider `C#CCn1c(=O)c2c(nc(C#Cc3cccc(OC)c3)n2CC#C)n(C)c1=O` [drawing 467], for which the Ki on Rat A1 AR was no less than 10 µM; on Rat A2A AR it was 0.09 ± 0.0357 µM.
For `C#CCn1c(=O)c2c(nc(C#Cc3ccc(OC)c(OC)c3)n2C)n(CCN(C)C)c1=O` [drawing 489], in that order: 0.81 ± 0.145 µM and 0.054 ± 0.005 µM.
For `C#CCn1c(=O)c2c(nc(C#Cc3cccc(OCc4ccoc4)c3)n2C)n(C)c1=O` [drawing 479], in that order: greater than 1 µM and 0.0664 ± 0.019 µM.
For `C#CCn1c(=O)c2c(nc(C#Cc3ccc(OC)c(OC)c3)n2C)n(C(C)C)c1=O` [drawing 516] the same measures were no less than 1 µM and 0.118 ± 0.019 µM.
Take `C#CCn1c(=O)c2c(nc(C#Cc3ccc(OC)c(OC)c3)n2C)n(CCCF)c1=O`: the Ki was no less than 1 µM on Rat A1 AR and 0.0163 ± 0.0028 µM at Rat A2A AR.
For `CCn1c(=O)n(Cc2ccco2)c(=O)c2c1nc(C#Cc1ccc(OC)c(OC)c1)n2C` the same measures were 0.208 ± 0.054 µM and 0.0909 ± 0.007 µM.
For `C#CCn1c(=O)c2c(nc(C#Cc3ccc4c(c3)OCO4)n2C)n(C)c1=O` [drawing 476], in that order: greater than 10 µM and 0.166 ± 0.034 µM.
For `C#CCn1c(=O)c2c(nc(C#Cc3ccc(OC)c(OC)c3)n2C)n(CCF)c1=O` [drawing 518], in that order: no less than 1 µM and 0.00999 ± 0.0007 µM.
`C#CCn1c(=O)c2c(nc(C#Cc3ccc(C)cc3)n2C)n(C)c1=O`: the Ki is greater than 10 µM at Rat A1 AR and 0.151 ± 0.0084 µM on Rat A2A AR.
